SMILES strings stand for the structures.

Data on 28 compounds can be found in US10010536B2, “Method of modulating stress-activated protein kinase system” (InterMune, Inc., priority 2005, dated 2018).

In data set [1] the test system is TNFα release from THP-1 cells stimulated with lipopolysaccharide (LPS). The data set can be described thus: Inhibition of TNFα release from THP-1 cells stimulated with lipopolysaccharide (LPS). The data set is classed as cell-based. Further details: key to TNF EC50: A: ≤2,000; B: >2,000; C: Inconclusive (e.g., no data or no activity observed). Particulars: for EC50: Homo sapiens, read-out: TNF EC50. As for the experimental part: Compounds are screened for the ability to inhibit TNFα release from THP-1 cells stimulated with lipopolysaccharide (LPS) in vitro. The ability of compounds to inhibit TNFα release in this in vitro assay is correlated with the inhibition of p38 activity and TNFα, and is therefore an indicator of potential in vivo therapeutic activity (Lee J. C. et al. 1993 Ann. N.Y. Acad. Sci. 696:149-170; and 1994 Nature 372:739-746).
THP-I cells from ATCC (TIB202) are maintained at 37° C., 5% CO2 in RPMI 1640 media (MediaTech, Herndon, Va.) containing 4.5 g/L glucose, supplemented with 10% fetal bovine serum, 1% penicillin/streptomycin and 50 μM β-mercaptoethanol.
Test compounds are initially dissolved in RPMI media with 1% DMSO (v/v). Compounds are then serially diluted in RPMI media for all subsequent dilutions. The assay is performed under sterile conditions. THP-1 cells at a culture density of 6-8×10^5 cells/ml are collected and resuspended in the RPMI media at 10^6 cells/ml. 100 μl of resuspended cells are added to each well, which contain 100 μl of a test compound. Test compounds are prepared at twice the final concentration. Final DMSO concentration is no more than 0.5% (v/v). Cells are preincubated with compound for 60 minutes at 37° C., 5% CO2 prior to stimulation with lipopolysaccharide (LPS) (Sigma L-2880, 4 mg/ml stock in PBS). The final LPS concentration in each well is […] for TNFα and IL-1β release, respectively. Unstimulated control cell suspensions receive PBS vehicle only. Cell mixtures are incubated for 18 or 48 hours for TNFα and IL-1β release, respectively. 150 μl of supernatants are taken and transferred to a fresh plate and stored at −20° C. until farther analysis. TNFα and IL-1β levels are measured using ELISA kits. A Luminescence is used as the plate reader. Analysis is performed by non-linear regression to generate a dose response curve.

Data set [2] is described as follows: Pharmacokinetic properties in dual canulated Sprague Dawley rats. The data set is classed as in vivo. Also noted: Clobs: unit not given here. The following applies: rat; for AUC(0-t) / MRT inf / half-life: male, Sprague Dawley, plasma. As for the experimental part:
The pharmacokinetic (PK) properties of pirfenidone, pirfenidone analogs and derivatives were assessed in dual canulated (right jugular/left carotid) Sprague Dawley rats (Charles River Laboratories, Inc., Wilmington, Mass.). Male rats weighing approximately 275-300 g were administered an intravenous (5 mg/Kg) or oral (50 mg/Kg via gavage) dose of compound in an appropriate formulation. Plasma samples were collected via intra-arterial canula at desired times in the 24 hours after dosing using EDTA as an anticoagulant. Three animals were used for each compound. All experiments were conducted by trained personnel in accordance with guidelines of the appropriate Institutional Animal Care and Use Committees (IACUC). Compound concentrations were assessed by LC-MS using a MDS SCIEX API 3000 mass spectrometer (Applied Biosystems, Foster City, Calif.) coupled to a Shimadzu VP HPLC (Shimadzu Corp., Kyoto, Japan) outfitted with a Duragel G C18 guard cartridge (Peeke Scientific, Redwood City, Calif.). Calibration samples were prepared by mixing known amounts of pirfenidone, or a pirfenidone analog or derivative, with rat plasma. A standard curve was created by serial dilution of the calibration sample in the same matrix. Both standard and analytical samples were prepared for injection to the HPLC by mixing an aliquot of plasma sample with 3 volumes of ice cold acetonitrile containing internal standard. Samples were then centrifuged. An aliquot of the resulting supernatant was then mixed with five volumes of 0.2% formic acid in water, injected to the HPLC, and resolved in a methanol gradient (containing 0.18-0.2% formic acid). The integrated analyte signal was corrected for that of the internal standard and compared to the appropriate standard curve in order to define the analyte concentration. The pharmacokinetic parameters shown in Table 4 were derived using the WinNonlin Software package (Pharsight Corp, Mountain View, Calif.).

Data set [3] deals with HFL-1 Cells. The data set can be described thus: Effect of compounds on TGF-β-induced collagen production in HFL-1 cells (Sircol collagen assay). The data set is classed as cell-based. Particulars: Homo sapiens, HFL1, 72 h, compound 1 mM, TGF-β1 10 ng/mL, three days, read-out: % Inhibition of TGF-β Stimulated Collagen Synthesis. How it is done: HFL-1 Cells (ATCC, Rockville, Md.) were grown under regular tissue culture conditions in complete media containing 10% fetal bovine serum (FBS; Mediatech, Inc., Herndon, Va.). Cells in early passage were plated in 6 well plates. When the cells reached confluence, the media was removed, cells washed with PBS, and the cells were kept overnight in complete media containing 0.1% FBS. The media was then replaced with fresh media plus 0.1% FCS, 10 μM L-Proline (EMD Chemicals, Gibbstown, N.J.), 20 μg/mL ascorbic acid (EMD Chemicals, Gibbstown, N.J.). Compounds were added to triplicate wells to a final concentration of 1 mM from 100× stock solutions in DMSO. One hour after the addition of compound, the cells were treated with TGF-β1 (Sigma-Aldrich, St. Louis, Mo.) to a final concentration of 10 ng/mL (25 ng total). Three days after addition of TGF-β, the media was removed, cells were washed with PBS and then lysed. The total collagen content of lysed cells was assessed with a dye-based collagen assay (Sircol Collagen Assay, Newtownabbey, Northern Ireland) and a μQuant plate-based spectrophotometer (BioTek Insturments, Inc., Winooski, Vt.) with appropriate standard curves. The dynamic range of the assay is defined by cells that were mock treated (1% DMSO without compound) in the presence and absence of TGF-β.

Data set [4] concerns THP-1 cells. The data set can be described thus: Compound toxicity testing in a cell based assay (LDH release, ATP and/or MTT assay). Particulars: given as concentration. As for the experimental part:
The release of LDH as result of a disrupted cell membrane is applied as a measure of cell toxicity. […] THP-1 cells are used for determination of cell toxicity for consistency with the induced TNFα expression in the previous experiment. […] The compounds are added at different concentrations in triplicate. The appropriate solvent control is used in each assay. After compound addition the cells are cultured 18 hours under regular tissue culture conditions. After this incubation period, the positive control is initiated by adding Triton-X-100 (2% v/v) to untreated cells and incubated for an additional 10 minutes for complete cell lysis. Subsequently the cells are sedimented by centrifugation and a fraction of the supernatant removed and analyzed for LDH enzyme activity according to the manufacturer's instructions. The data is typically reported as % cell toxicity normalized to the Triton-X-100 lysed cells as 100% cell toxicity.
Toxicity data are also obtained using a commercially available ATP assay (Molecular Probes' ATP Determination Kit A22066, available from Invitrogen) and/or using a MTT assay. Both the ATP and the MTT assays measure metabolic competence of the cell. The MTT assay measures the ability of the cell to reduce a marker substrate, which is related to metabolic competence (i.e. viability). The ATP assay measures the cellular ATP concentration in the presence and absence of compound. Toxic compounds lead to reduced metabolic activity which leads to a reduction in ATP concentration.
A general note: Release of lactate dehydrogenase indicates damage to the cell membrane.

In the case of `COC(=O)c1ccc(=O)n(-c2ccccc2)c1` [Compound 24], the “TNF EC50” value in data set [1] was “C”.
On the same count and under the same terms, to `O=c1ccc(C(F)(F)F)cn1-c1ccc(F)cc1` [Compound 12] belongs “C”; to `O=C(O)c1ccc(=O)n(-c2ccccc2)c1` [Compound 2], “C”.
Take `O=c1ccc(C(F)F)cn1-c1ccccc1` [Compound 19]: in data set [2] (IV, 5 mg/kg), the exposure AUC(0-t) is 35000 ng·h/mL, the MRT inf turned out to be 6.26 h, the half-life was 2.96 h and the Clobs is 0.142. In data set [2] (Oral, 50 mg/kg), the AUC(0-t) worked out at 192000 ng·h/mL and the E came to 54.8%.
Turning to `COc1ccc(-n2cc(C(F)(F)F)ccc2=O)cc1` [Compound 15], the “TNF EC50” value in data set [1] was “C”. In addition, the inhibition at 1000 µM in data set [3] is 49%.
With `O=c1ccc(Br)cn1-c1ccccc1` [Compound 26], in data set [2] (IV, 5 mg/kg), the exposure AUC(0-t) was 10300 ng·h/mL, the MRT inf turned out to be 2.4 h, the half-life is 1.62 h and the Clobs was 0.691. Also, in data set [2] (Oral, 50 mg/kg), the exposure AUC(0-t) worked out at 65800 ng·h/mL and the E was 63.9%. Further, the concentration for a half-maximal effect (EC50) in data set [1] is not above 2000 µM. In data set [3], the inhibition at 1000 µM is 58%.
For `O=c1ccccn1-c1ccc(O)cc1` [Compound 9], in data set [1], the “TNF EC50” value is reported as “C”.
Still for that read-out and setting: next, `Cc1ccc(=S)n(-c2ccccc2)c1` [Compound 18, 1-phenyl-5-methyl-2-pyridinethione]: “C”; `O=c1ccc(-c2ccccc2)cn1-c1ccccc1` [Compound 17]: “C”; `O=c1ccc(C(F)F)cn1-c1ccc(O)cc1` [Compound 29]: “C”.
In the case of `O=c1ccccn1-c1ccc(F)cc1` [Compound 11], in data set [1], the concentration for a half-maximal effect (EC50) was more than 2000 µM.
Turning to `Cc1ccc(=O)n(-c2ccc(F)cc2)c1` [Compound 14], the EC50 in data set [1] is more than 2000 µM. In addition, the inhibition at 1000 µM in data set [3] stood at 23%.
`O=c1ccc(Br)cn1-c1ccc(O)cc1` [Compound 30]: in data set [1], the EC50 is not above 2000 µM. The inhibition at 1000 µM in data set [3] is 69%.
Consider `CC(=O)c1ccc(=O)n(-c2ccccc2)c1` [Compound 16, 1-phenyl-5-acetyl-2-pyridone], for which, in data set [1], the “TNF EC50” value is listed as “C”.
Regarding `Cc1ccc(=O)n(-c2ccccc2)c1` [Compound 13, 5-methyl-1-phenyl-2-(1H)-pyridone, reference compound], in data set [4], the Toxicity was not below 1 mM. Besides, the concentration for a half-maximal effect (EC50) in data set [1] was not above 2000 µM.
Take `COc1ccc(-n2cc(C(F)F)ccc2=O)cc1` [Compound 32]: the EC50 in data set [1] was not above 2000 µM.
As to `O=c1ccc2cc(Br)ccc2n1-c1ccccc1` [Compound 33], in data set [1], the “TNF EC50” value is recorded as “C”.
On the same count and under the same terms, to `O=c1ccc(CF)cn1-c1ccc(O)cc1` [Compound 28] belongs “C”.
On to `COc1ccc(-n2cc(Br)ccc2=O)cc1` [Compound 27], for which, in data set [1], the concentration for a half-maximal effect (EC50) is not above 2000 µM.
In the case of `Cc1ccc(=O)n(-c2ccc(O)cc2)c1` [Compound 5], the Toxicity in data set [4] is given as not below 1 mM. Also, the EC50 in data set [1] was not above 2000 µM.
Regarding `COCc1ccc(=O)n(-c2ccccc2)c1` [Compound 6], in data set [4], the Toxicity is not below 1 mM. For the same compound, the EC50 in data set [1] was not above 2000 µM.
As for `O=c1ccc(C(F)(F)F)cn1-c1ccc(O)cc1` [Compound 10, 1-(4-hydroxyphenyl)-5-(trifloromethyl)-2-pyridone], in data set [1], the 50% effective concentration (EC50) was not above 2000 µM.
Regarding `Cc1ccc(=O)n(-c2cc[n+](C)cc2)c1` [Compound 25], the EC50 in data set [1] was more than 2000 µM.
In data set [2] (IV, 5 mg/kg), `O=c1ccc(C(F)(F)F)cn1-c1ccccc1` [Compound 8] showed an exposure AUC(0-t) of 30200 ng·h/mL, an MRT inf of 20.3 h, a half-life of 13.9 h and a Clobs of 0.117. In addition, in data set [2] (Oral, 50 mg/kg), the area under the curve AUC(0-t) was found to be 122000 ng·h/mL and the E amounted to 40.5%. Besides, in data set [1], the concentration giving a half-maximal response (EC50) was more than 2000 µM. Moreover, the inhibition at 1000 µM in data set [3] was determined as 48%.
Consider `O=c1ccccn1-c1ccccc1` [Compound 7], for which, in data set [1], the concentration giving a half-maximal response (EC50) was more than 2000 µM.
As to `COc1ccc(-n2cc(CF)ccc2=O)cc1` [Compound 31], in data set [1], the 50% effective concentration (EC50) was not above 2000 µM.
As for `O=c1ccc(CO)cn1-c1ccccc1` [Compound 1], in data set [1], the half-maximal effective concentration (EC50) was more than 2000 µM.
On to `Cc1cc(O)c(=O)n(-c2ccccc2)c1` [Compound 4], for which the Toxicity in data set [4] is not below 1 mM. In addition, the EC50 in data set [1] is not above 2000 µM.

One may read the AUC(0-t) as exposure summed from dosing to a finite time, without extrapolation to infinity. The term MRT inf denotes the average time that molecules of a dose stay in the body. What is called half-life is the time in which the quantity being followed falls by half. As a reminder, the inhibition is the drop in the measured response relative to a control, in per cent. The term EC50 denotes the concentration at which the effect is half-maximal.
